Measured values reported in PubChem BioAssay (NCI).
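Five compound concentrations were applied to cells in 96-well plates for 48 hours; endpoints were derived by simple linear interpolation of the resulting dose-response curve. Abbreviation: GI50, concentration required for 50% inhibition of growth. The concentration for full growth arrest is given as TGI.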

Key:
Experiment in all cases: growth of human tumour cells (NCI), 48 h
SF-295 CNS = system: SF-295 CNS
COLO 205 colon = system: COLO 205 colon
KM12 colon = system: KM12 colon
CCRF-CEM leukemia = system: CCRF-CEM leukemia
HCT-116 colon = system: HCT-116 colon
U251 CNS = system: U251 CNS
OVCAR-4 ovarian = system: OVCAR-4 ovarian
M14 melanoma = system: M14 melanoma
SR leukemia = system: SR leukemia
UO-31 renal = system: UO-31 renal
TK-10 renal = system: TK-10 renal
T-47D breast = system: T-47D breast
MOLT-4 leukemia = system: MOLT-4 leukemia
HT29 colon = system: HT29 colon
OVCAR-8 ovarian = system: OVCAR-8 ovarian
HOP-92 NSCLC = system: HOP-92 NSCLC
HL-60(TB) leukemia = system: HL-60(TB) leukemia
LOX IMVI melanoma = system: LOX IMVI melanoma
EKVX NSCLC = system: EKVX NSCLC
NCI-H522 lung = system: NCI-H522 lung
SK-MEL-28 melanoma = system: SK-MEL-28 melanoma
HCT-15 colon = system: HCT-15 colon
SK-OV-3 ovarian = system: SK-OV-3 ovarian
NCI-H460 lung = system: NCI-H460 lung
UACC-257 melanoma = system: UACC-257 melanoma
HS 578T breast = system: HS 578T breast
SK-MEL-2 melanoma = system: SK-MEL-2 melanoma
SN12C renal = system: SN12C renal
UACC-62 melanoma = system: UACC-62 melanoma
MDA-MB-435 = system: MDA-MB-435
NCI-H226 lung = system: NCI-H226 lung
SNB-19 CNS = system: SNB-19 CNS
SNB-75 CNS = system: SNB-75 CNS
RPMI-8226 leukemia = system: RPMI-8226 leukemia
OVCAR-5 ovarian = system: OVCAR-5 ovarian
IGROV1 ovarian = system: IGROV1 ovarian
PC-3 prostate = system: PC-3 prostate
MDA-MB-231 breast = system: MDA-MB-231 breast
MCF7 breast = system: MCF7 breast
NCI-H23 lung = system: NCI-H23 lung
SK-MEL-5 melanoma = system: SK-MEL-5 melanoma
HCC-2998 colon = system: HCC-2998 colon
SW-620 colon = system: SW-620 colon
A498 renal = system: A498 renal
ACHN renal = system: ACHN renal
MALME-3M melanoma = system: MALME-3M melanoma
DU-145 prostate = system: DU-145 prostate
HOP-62 NSCLC = system: HOP-62 NSCLC
OVCAR-3 ovarian = system: OVCAR-3 ovarian
K-562 leukemia = system: K-562 leukemia
786-0 renal = system: 786-0 renal
BT-549 breast = system: BT-549 breast
NCI/ADR-RES ovarian = system: NCI/ADR-RES ovarian
CAKI-1 renal = system: CAKI-1 renal
RXF 393 renal = system: RXF 393 renal
SF-268 CNS = system: SF-268 CNS
SF-539 CNS = system: SF-539 CNS
A549 NSCLC = system: A549 NSCLC

Cc1nn(-c2ccccc2)c2ncnc(N/N=C/c3ccccc3O)c12
GI50 (SF-295 CNS): 0.407 µM
TGI (SF-295 CNS): 11.7 µM
GI50 (COLO 205 colon): 0.385 µM
TGI (COLO 205 colon): 22.9 µM
GI50 (KM12 colon): 0.382 µM
TGI (KM12 colon): > 100 µM
GI50 (CCRF-CEM leukemia): 0.14 µM
TGI (CCRF-CEM leukemia): > 100 µM
GI50 (HCT-116 colon): 0.422 µM
TGI (HCT-116 colon): 27.3 µM
GI50 (U251 CNS): 0.425 µM
TGI (U251 CNS): > 49.5 µM
GI50 (OVCAR-4 ovarian): 0.303 µM
TGI (OVCAR-4 ovarian): > 54.3 µM
GI50 (M14 melanoma): 0.27 µM
TGI (M14 melanoma): 1.64 µM
GI50 (SR leukemia): 0.232 µM
TGI (SR leukemia): > 100 µM
GI50 (UO-31 renal): 0.325 µM
TGI (UO-31 renal): 2.85 µM
GI50 (TK-10 renal): 2.97 µM
TGI (TK-10 renal): > 70.6 µM
GI50 (T-47D breast): 1.92 µM
TGI (T-47D breast): 13.7 µM
GI50 (MOLT-4 leukemia): 0.28 µM
TGI (MOLT-4 leukemia): > 59 µM
GI50 (HT29 colon): 1.12 µM
TGI (HT29 colon): > 50 µM
GI50 (OVCAR-8 ovarian): 0.354 µM
TGI (OVCAR-8 ovarian): > 100 µM
GI50 (HOP-92 NSCLC): 0.455 µM
TGI (HOP-92 NSCLC): 6.75 µM
GI50 (HL-60(TB) leukemia): 0.37 µM
TGI (HL-60(TB) leukemia): > 100 µM
GI50 (LOX IMVI melanoma): 0.317 µM
TGI (LOX IMVI melanoma): 5.73 µM
GI50 (EKVX NSCLC): 0.391 µM
TGI (EKVX NSCLC): > 43.3 µM
GI50 (NCI-H522 lung): 0.416 µM
TGI (NCI-H522 lung): 44.9 µM
GI50 (SK-MEL-28 melanoma): 0.481 µM
TGI (SK-MEL-28 melanoma): > 100 µM
GI50 (HCT-15 colon): 0.266 µM
TGI (HCT-15 colon): 17.5 µM
GI50 (SK-OV-3 ovarian): 0.465 µM
TGI (SK-OV-3 ovarian): 4.72 µM
GI50 (NCI-H460 lung): 0.382 µM
TGI (NCI-H460 lung): > 78.4 µM
GI50 (UACC-257 melanoma): 1.81 µM
TGI (UACC-257 melanoma): 31.1 µM
GI50 (HS 578T breast): 1.83 µM
TGI (HS 578T breast): > 100 µM
GI50 (SK-MEL-2 melanoma): 0.633 µM
TGI (SK-MEL-2 melanoma): 47.1 µM
GI50 (SN12C renal): 0.52 µM
TGI (SN12C renal): > 49.6 µM
GI50 (UACC-62 melanoma): 2.01 µM
TGI (UACC-62 melanoma): 12.1 µM
GI50 (MDA-MB-435): 0.544 µM
TGI (MDA-MB-435): > 100 µM
GI50 (NCI-H226 lung): 2.55 µM
TGI (NCI-H226 lung): 8.59 µM
GI50 (SNB-19 CNS): 0.507 µM
TGI (SNB-19 CNS): > 100 µM
GI50 (SNB-75 CNS): 0.267 µM
TGI (SNB-75 CNS): 2.99 µM
GI50 (RPMI-8226 leukemia): 0.394 µM
TGI (RPMI-8226 leukemia): 33.2 µM
GI50 (OVCAR-5 ovarian): 3.85 µM
TGI (OVCAR-5 ovarian): > 100 µM
GI50 (IGROV1 ovarian): 0.597 µM
TGI (IGROV1 ovarian): 16.5 µM
GI50 (PC-3 prostate): 0.345 µM
TGI (PC-3 prostate): > 49.7 µM
GI50 (MDA-MB-231 breast): 0.529 µM
TGI (MDA-MB-231 breast): 53.3 µM
GI50 (MCF7 breast): 0.353 µM
TGI (MCF7 breast): 12.5 µM
GI50 (NCI-H23 lung): 0.509 µM
TGI (NCI-H23 lung): 25.5 µM
GI50 (SK-MEL-5 melanoma): 0.621 µM
TGI (SK-MEL-5 melanoma): 4.72 µM
GI50 (HCC-2998 colon): 0.793 µM
TGI (HCC-2998 colon): 35.2 µM
GI50 (SW-620 colon): 0.537 µM
TGI (SW-620 colon): > 96 µM
GI50 (A498 renal): 2.82 µM
TGI (A498 renal): 11.2 µM
GI50 (ACHN renal): 0.283 µM
TGI (ACHN renal): 40.4 µM
GI50 (MALME-3M melanoma): 0.505 µM
TGI (MALME-3M melanoma): 11.8 µM
GI50 (DU-145 prostate): 0.318 µM
TGI (DU-145 prostate): > 100 µM
GI50 (HOP-62 NSCLC): 0.288 µM
TGI (HOP-62 NSCLC): 6.23 µM
GI50 (OVCAR-3 ovarian): 0.306 µM
TGI (OVCAR-3 ovarian): 46.3 µM
GI50 (K-562 leukemia): 0.397 µM
TGI (K-562 leukemia): > 100 µM
GI50 (786-0 renal): 0.396 µM
TGI (786-0 renal): 27.7 µM
GI50 (BT-549 breast): 0.996 µM
TGI (BT-549 breast): 41.9 µM
GI50 (NCI/ADR-RES ovarian): 0.331 µM
TGI (NCI/ADR-RES ovarian): 8.54 µM
GI50 (CAKI-1 renal): 0.943 µM
TGI (CAKI-1 renal): 8.86 µM
GI50 (RXF 393 renal): 0.882 µM
TGI (RXF 393 renal): 9.11 µM
GI50 (SF-268 CNS): 0.3 µM
TGI (SF-268 CNS): > 100 µM
GI50 (SF-539 CNS): 0.396 µM
TGI (SF-539 CNS): 7.13 µM
GI50 (A549 NSCLC): 0.936 µM
TGI (A549 NSCLC): > 41.9 µM
